The source of these data is patent US20250019374A1, “PROTEIN TYROSINE PHOSPHATASE INHIBITORS AND METHODS OF USE THEREOF” (Calico Life Sciences LLC, priority 2021, published 2025).

The target in test [1] is His tagged PTPN2 (TC45) protein (Homo sapiens (Human), UniProt P17706). Kind of test: PTPN2 Mobility Shift Assay (MSA). The conditions noted are these: for Dihydrobenzofuran or Indoline x-fold>potency biochemical: x-fold versus corresponding chromane comparator, PTPN2 MSA. The class given is biochemical. The method, then: Example III-1: Mobility Shift Assay (MSA) Used to Determine Potency of PTPN2 Inhibitors
His tagged PTPN2 (TC45) protein, sequence (P17706 other isoform, or with tags, fused parts or gaps): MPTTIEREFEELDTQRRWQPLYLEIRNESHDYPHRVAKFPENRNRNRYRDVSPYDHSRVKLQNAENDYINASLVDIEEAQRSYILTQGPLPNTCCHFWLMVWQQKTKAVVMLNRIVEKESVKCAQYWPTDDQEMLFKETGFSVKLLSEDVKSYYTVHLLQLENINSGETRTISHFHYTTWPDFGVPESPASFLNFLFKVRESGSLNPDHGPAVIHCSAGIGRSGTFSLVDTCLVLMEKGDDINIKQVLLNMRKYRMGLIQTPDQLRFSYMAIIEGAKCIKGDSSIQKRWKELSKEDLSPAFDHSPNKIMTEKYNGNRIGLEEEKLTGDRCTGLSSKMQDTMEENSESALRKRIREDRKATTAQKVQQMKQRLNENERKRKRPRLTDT
Compound activity was determined using in house His tagged PTPN2 (TC45) protein (SEQ ID NO: 1) in an in vitro enzymatic reaction. The enzymatic assay used to determine activity was a mobility shift assay using a LabChip EZ Reader by Caliper Life Sciences. The enzymatic reaction was carried out in assay buffer (50 mM HEPES pH 7.5, 1 mM EGTA, 10 mM EDTA, 0.01% Tween® 20, and 2 mM DTT). The compounds were dispensed on a white 384 well ProxiPlate™ (PerkinElmer Catalog #6008289) plate using the Labcyte Echo at varying concentrations (12 point, 1:3 dilution). The enzyme (at 0.5 nM) was incubated with compound for 10 minutes at room temperature. Thereafter, the substrate (phosphorylated insulin receptor probe sequence: ((OG488)-(NH—CH2—CH2—O—CH2—CH2—O—CH2—CO)-T-R-D-I—(PY)-E-T-D-Y—Y—R—K—K—NH2) (SEQ ID NO: 2) was added at 2 μM to the plates and incubated for another 10 minutes at room temperature. Finally, a quench solution (water and 4-bromo-3-(2-oxo-2-propoxyethoxy)-5-(3-{[1-(phenylmethanesulfonyl)piperidin-4-yl]amino}phenyl)thiophene-2-carboxylic acid) was added to the plates, which were then run on the EZ Reader (excitation 488 nm, emission 530 nm) to measure % conversion (the amount of phosphorylated substrate which was de-phosphorylated by PTPN2). […] The % inhibition was then used to calculate the IC50 values.

Test [2] deals with His tagged full-length PTPN1 protein (Homo sapiens (Human), UniProt P18031). Kind of test: PTPN1 Mobility Shift Assay (MSA). The class given is biochemical. To be noted: enzyme 0.5 nM, substrate 2 μM. The method, then:
Example III-2: Mobility Shift Assay (MSA) Used to Determine Potency of PTPN1 Inhibitors
Compound activity was determined using in house His tagged full-length PTPN1 protein (SEQ ID NO: 3) in an in vitro enzymatic reaction. The enzymatic assay used to determine activity is a mobility shift assay using a LabChip EZ Reader by Caliper Life Sciences. The enzymatic reaction was carried out in assay buffer (50 mM HEPES pH 7.5, 1 mM EGTA, 10 mM EDTA, 0.01% Tween® 20, and 2 mM DTT). The compounds were dispensed on a white 384 well ProxiPlate™ (PerkinElmer Cat ^#6008289) plate using a Labcyte Echo® liquid handler at varying concentrations (12 point, 1:3 dilution). The enzyme (at 0.5 nM) was incubated with compound for 10 minutes at room temperature. Thereafter, the substrate (phosphorylated insulin receptor probe sequence: ((OG488)-(NH—CH2—CH2—O—CH2—CH2—O—CH2—CO)-T-R-D-I—(PY)-E-T-D-Y—Y—R—K—K—NH2) (SEQ ID NO: 2) was added at 2 μM to the plates and incubated for another 10 minutes at room temperature. Finally, a quench solution (water and 4-bromo-3-(2-oxo-2-propoxyethoxy)-5-(3-{[1-(phenylmethanesulfonyl)piperidin-4-yl]amino}phenyl)thiophene-2-carboxylic acid) was added to the plates, which were then run on the EZ Reader (excitation 488 nm, emission 530 nm) to measure % conversion (the amount of phosphorylated substrate which was de-phosphorylated by PTPN1). […] The % inhibition was then used to calculate the IC50 values.

For test [3], the system named is IFNγ-induced STAT1 phosphorylation (pSTAT1) in B16F10 cells. Kind of test: B16F10 Phospho-STAT1 HTRF proximal pharmacodynamic (PD) assay. The class given is cell-based, murine. The conditions noted are these: for EC50: B16-F10, B16F10 cells; for Dihydrobenzofuran or Indoline x-fold>potency cellular: x-fold versus corresponding chromane comparator, B16F10 pSTAT1. The protocol:
Example III-3: B16F10 (Murine Melanoma Cells) Phospho-STAT1 HTRF Proximal Pharmacodynamic (PD) Assay
B16F10 cells were grown and maintained in high glucose DMEM (Gibco, Catalog^#11965-092, Dun Laoghaire Co Dublin) supplemented with 10% fetal bovine serum (Gibco, Catalog^#10082-139, Dun Laoghaire Co Dublin). The cells were pelleted and resuspended in high glucose DMEM without phenol red (Gibco, Catalog^#11054-020, Dun Laoghaire Co Dublin), supplemented with 10% fetal bovine serum and plated in a 384 well Corning plate (product^#3765, Corning, NY) at 11,000 cells per well in a volume of 20 μL. The cells were dosed with the compounds of interest using an Echo Liquid Handler (Beckman Coulter, Brea, CA) at 50 μM top dose with 3-fold dilutions down to 0.002679 μM for a 10-point dose response. The plate was incubated for 3 hours at 37° C. and subsequently treated with recombinant mouse IFNγ (R&D Systems, Catalog^#485-MI, Minneapolis, MN; 100 nM final concentration) for 10 minutes at 37° C. to induce STAT1 phosphorylation followed by 3.3 μM staurosporine treatment for 1 hour at 37° C. to terminate phosphorylation. Media was then aspirated and 20 μL of 1× lysis buffer/blocking reagent (Cisbio Phospho-STAT1 kit, part^# 63ADK026PEH, Bedford, MA) was added. The plate was placed on a plate shaker for 30 minutes at room temperature, sealed, and stored at −80° C. until needed. To thaw, the plate was placed on shaker at room temperature until completely thawed while the antibody master mix was made (1:40 Phospho-STAT1 Eu Cryptate antibody, 1:40 Phospho-STAT d2 antibody, with the detection buffer; Cisbio Phospho-STAT1 kit, part^#63ADK026PEH, Bedford, MA). The antibody master mix was then dispensed at 4 μL per well into a 384 ProxiPlate Plus (PerkinElmer, part^#6008289, Waltham, MA) and 16 μL of lysate was added from the Corning plate to the Proxiplate using a VIAFLO 384 (INTEGRA). The plate was incubated for 3 hours at room temperature and read on an EnVision® (Perkin Elmer) plate reader with laser excitation at 335 nm and emission at 665 nm. Dotmatics Studies (Bishop's Stortford, UK) was utilized to generate all dose-response curves and calculate EC50s and are shown in Table 2.

[4] abbreviates: 3 hours compound, 100 nM mouse IFNγ 10 minutes, read-out: B16F10 IFNγ Induced pSTAT1 EC50.
Where [5] appears, read: Table 3, dihydrobenzofuran or indoline compound (X = O or NH).
[6] abbreviates: Mus musculus, Table 3, dihydrobenzofuran or indoline compound (X = O or NH), read-out: pSTAT1 EC50.

Where two headings read alike, the source gives them in different places.

His tagged full-length PTPN1 protein, sequence (P18031 whole entry): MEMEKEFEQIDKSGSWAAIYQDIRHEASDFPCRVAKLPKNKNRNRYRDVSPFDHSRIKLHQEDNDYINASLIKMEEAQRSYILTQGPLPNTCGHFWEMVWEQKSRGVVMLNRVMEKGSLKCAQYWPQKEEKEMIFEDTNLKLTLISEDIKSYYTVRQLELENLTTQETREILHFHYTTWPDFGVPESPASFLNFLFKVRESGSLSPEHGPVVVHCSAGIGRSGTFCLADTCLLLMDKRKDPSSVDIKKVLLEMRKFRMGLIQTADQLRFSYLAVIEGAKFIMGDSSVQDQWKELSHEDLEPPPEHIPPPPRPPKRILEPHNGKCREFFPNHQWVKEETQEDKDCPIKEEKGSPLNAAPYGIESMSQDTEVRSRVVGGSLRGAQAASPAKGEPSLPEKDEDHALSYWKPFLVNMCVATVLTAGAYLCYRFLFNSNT

On to `CC(C)C1CC(CNC[C@H]2Cc3c(cc(O)c(N4CC(=O)NS4(=O)=O)c3F)N2)C1` (stereo partly drawn) [Compound 154, 5-{(2R)-4-fluoro-6-hydroxy-2-[({[3-(propan-2-yl)cyclobutyl]methyl}amino)methyl]-2,3-dihydro-1H-indol-5-yl}-1λ^6,2,5-thiadiazolidine-1,1,3-trione], for which the 50% inhibitory concentration (IC50) is < 10 nM in test [1] (enzyme 0.5 nM, substrate 2 μM) and 10 to 100 nM in test [2]. For the same compound, the EC50 in test [3] (setting [4]) was found to be 1880 nM.

On to `O=C1CN(c2c(O)cc3c(c2F)C[C@H](CNCC2CCOCC2)N3)S(=O)(=O)N1` [Compound 138, 5-[(2R)-4-fluoro-6-hydroxy-2-({[(oxan-4-yl)methyl]amino}methyl)-2,3-dihydro-1H-indol-5-yl]-1λ^6,2,5-thiadiazolidine-1,1,3-trione], for which the 50% inhibitory concentration (IC50) in test [1] (setting [5]) is 21.6 nM; in test [1] (enzyme 0.5 nM, substrate 2 μM), 10 to 100 nM; in test [2], 10 to 100 nM. For the same compound, the “Dihydrobenzofuran or Indoline x-fold>potency biochemical” value in test [1] was 0.8. Further, the concentration for a half-maximal effect (EC50) worked out at 1560 nM in test [3] (setting [4]) and 156000 nM in test [3] (setting [6]). Besides, the “Dihydrobenzofuran or Indoline x-fold>potency cellular” value in test [3] was found to be 20.6.

For the compound `CC(C)CNC[C@H]1Cc2c(cc(O)c(N3CC(=O)NS3(=O)=O)c2F)N1C` [Compound 156, 5-[(2R)-4-fluoro-6-hydroxy-1-methyl-2-{[(2-methylpropyl)amino]methyl}-2,3-dihydro-1H-indol-5-yl]-1λ^6,2,5-thiadiazolidine-1,1,3-trione], the IC50 in test [1] (enzyme 0.5 nM, substrate 2 μM) was > 100 nM; in test [2] it was > 100 nM.

Turning to `CC(C)CNC[C@@H]1Cc2c(cc(O)c(N3CC(=O)NS3(=O)=O)c2F)O1` [Compound 101, 5-[(2S)-4-fluoro-6-hydroxy-2-{[(2-methylpropyl)amino]methyl}-2,3-dihydro-1-benzofuran-5-yl]-1λ^6,2,5-thiadiazolidine-1,1,3-trione], the IC50 was > 100 nM in test [1] (enzyme 0.5 nM, substrate 2 μM) and > 100 nM in test [2].

Turning to `O=C1CN(c2c(O)cc3c(c2F)C[C@H](CNCC2CCC2)N3)S(=O)(=O)N1` [Compound 137, 5-[(2R)-2-{[(cyclobutylmethyl)amino]methyl}-4-fluoro-6-hydroxy-2,3-dihydro-1H-indol-5-yl]-1λ^6,2,5-thiadiazolidine-1,1,3-trione], the IC50 in test [1] (enzyme 0.5 nM, substrate 2 μM) is 10 to 100 nM; in test [2], 10 to 100 nM. For the same compound, in test [3] (setting [4]), the concentration for a half-maximal effect (EC50) stood at 904 nM.

Consider `CCCNC[C@H]1Cc2c(cc(O)c(N3CC(=O)NS3(=O)=O)c2F)N1` [Compound 135, 5-{(2R)-4-fluoro-6-hydroxy-2-[(propylamino)methyl]-2,3-dihydro-1H-indol-5-yl}-1λ^6,2,5-thiadiazolidine-1,1,3-trione], for which the IC50 lay in the range of 10 to 100 nM in test [1] (enzyme 0.5 nM, substrate 2 μM) and 10 to 100 nM in test [2]. In addition, in test [3] (setting [4]), the concentration for a half-maximal effect (EC50) stood at 756 nM.

Take `CC(C)(O)CCNC[C@H]1Cc2c(cc(O)c(N3CC(=O)NS3(=O)=O)c2F)O1` [Compound 105, 5-[(2R)-4-fluoro-6-hydroxy-2-{[(3-hydroxy-3-methylbutyl)amino]methyl}-2,3-dihydro-1-benzofuran-5-yl]-1λ^6,2,5-thiadiazolidine-1,1,3-trione]: the concentration for half-maximal inhibition (IC50) in test [1] (enzyme 0.5 nM, substrate 2 μM) was in the range of 10 to 100 nM; in test [2], 10 to 100 nM. Further, the half-maximal effective concentration (EC50) in test [3] (setting [4]) was found to be 2950 nM.

`O=C1CN(c2c(O)cc3c(c2F)C[C@H](CNCC(O)C(F)F)N3)S(=O)(=O)N1` (stereo partly drawn) [Compound 157, 5-[(2R)-2-{[(3,3-difluoro-2-hydroxypropyl)amino]methyl}-4-fluoro-6-hydroxy-2,3-dihydro-1H-indol-5-yl]-1λ^6,2,5-thiadiazolidine-1,1,3-trione]: the half-maximal inhibitory concentration (IC50) was > 100 nM in test [1] (enzyme 0.5 nM, substrate 2 μM) and > 100 nM in test [2].

On to `CC(C)CCNC[C@H]1Cc2c(cc(O)c(N3CC(=O)NS3(=O)=O)c2F)O1` [Compound 115, 5-[(2R)-4-fluoro-6-hydroxy-2-{[(3-methylbutyl)amino]methyl}-2,3-dihydro-1-benzofuran-5-yl]-1λ^6,2,5-thiadiazolidine-1,1,3-trione], for which the concentration for half-maximal inhibition (IC50) is 17.1 nM in test [1] (setting [5]); 10 to 100 nM in test [1] (enzyme 0.5 nM, substrate 2 μM); 10 to 100 nM in test [2]. The “Dihydrobenzofuran or Indoline x-fold>potency biochemical” value in test [1] is 0.9. The EC50 in test [3] (setting [4]) and in test [3] (setting [6]) was 835 nM throughout. The “Dihydrobenzofuran or Indoline x-fold>potency cellular” value in test [3] was 8.3.

`CCNC[C@H]1Cc2c(cc(O)c(N3CC(=O)NS3(=O)=O)c2F)O1` [Compound 112, 5-{(2R)-2-[(ethylamino)methyl]-4-fluoro-6-hydroxy-2,3-dihydro-1-benzofuran-5-yl}-1λ^6,2,5-thiadiazolidine-1,1,3-trione]: the concentration for half-maximal inhibition (IC50) fell in the range of 10 to 100 nM in test [1] (enzyme 0.5 nM, substrate 2 μM) and 10 to 100 nM in test [2]. In test [3] (setting [4]), the EC50 is 776 nM.

`CCCCNC[C@H]1Cc2c(cc(O)c(N3CC(=O)NS3(=O)=O)c2F)N1` [Compound 150, 5-{(2R)-2-[(butylamino)methyl]-4-fluoro-6-hydroxy-2,3-dihydro-1H-indol-5-yl}-1λ^6,2,5-thiadiazolidine-1,1,3-trione]: the half-maximal inhibitory concentration (IC50) in test [1] (enzyme 0.5 nM, substrate 2 μM) was 10 to 100 nM; in test [2] it was 10 to 100 nM. Moreover, the EC50 in test [3] (setting [4]) amounted to 2180 nM.

In the case of `CC(C)(C)OC(=O)N1CCC(CNC[C@H]2Cc3c(cc(O)c(N4CC(=O)NS4(=O)=O)c3F)O2)CC1` [Compound 124, tert-butyl 4-[({[(2R)-4-fluoro-6-hydroxy-5-(1,1,4-trioxo-1λ^6,2,5-thiadiazolidin-2-yl)-2,3-dihydro-1-benzofuran-2-yl]methyl}amino)methyl]piperidine-1-carboxylate], the IC50 in test [1] (setting [5]) is 13.2 nM; in test [1] (enzyme 0.5 nM, substrate 2 μM) it was 10 to 100 nM; in test [2], 10 to 100 nM. For the same compound, the “Dihydrobenzofuran or Indoline x-fold>potency biochemical” value in test [1] is recorded as 1.1.

`O=C1CN(c2c(O)cc3c(c2F)C[C@H](CNCCCOCC(F)F)O3)S(=O)(=O)N1` [Compound 123, 5-[(2R)-2-({[3-(2,2-difluoroethoxy)propyl]amino}methyl)-4-fluoro-6-hydroxy-2,3-dihydro-1-benzofuran-5-yl]-1λ^6,2,5-thiadiazolidine-1,1,3-trione]: the 50% inhibitory concentration (IC50) is 11.2 nM in test [1] (setting [5]); 10 to 100 nM in test [1] (enzyme 0.5 nM, substrate 2 μM); 10 to 100 nM in test [2]. Moreover, in test [1], the “Dihydrobenzofuran or Indoline x-fold>potency biochemical” value worked out at 2.1.

For orientation: IC50 means the concentration that inhibits the measured activity by half. As usually defined, the EC50 is the concentration giving half of the maximal effect.
